The values that follow come from US12679838B2, “Aromatic compound and application thereof in antitumor drug” (Shanghai Zheye Biotechnology Co., Ltd., priority 2020, dated 2026).

Each structure is given as a SMILES string. Bounds are passed on as bounds.

For series [1], the system named is NCI-H358 cells. The series can be described thus: Cell proliferation inhibitory activity, NCI-H358 (CellTiter-Glo). Format: cell-based. As to the method: NCI-H358 cells in an exponential growth phase were digested with trypsin-EDTA and plated in a 96-well plate at 2000-3000 cells per well and incubated overnight at 37° C. with 5% CO2. A test compound was prepared as a mother liquor with DMSO, diluted with a RPMI 1640 growth medium in a concentration gradient and added to the 96-well plate and incubated for 72 hours at 37° C. in a 5% CO2 incubator. After incubation, an equal volume of CellTiter-Glo detection reagent was added to each well and incubated after shaking, and a chemiluminescence value was measured by a microplate reader, and the IC50 value for the inhibition of NCI-H358 cell proliferation was fitted and calculated by GraphPad Prism software.
The inhibitory effect of the compounds on the proliferation activity of H358 cells was tested with reference to the method of the biological test 2, and the results were as follows:
The inhibitory effect of the compounds on the proliferation activity of NCI-H358 cells was tested with reference to the method of the biological test 2, and the results were as follows.

Series [2] can be described thus: Preliminary safety test of compounds, 3-day oral gavage. Conditions: mouse, in vivo, Balb/c, tentatively suggested, read-out: maximum tolerated dose. As to the method: Samples for testing: compound 3-2M and compound 3-6M.
Animal species and number: Balb/c; 3 animals per group.
Mode of administration: oral gavage.
Animal grouping and administration dose: solvent blank group and compound 3-2M group (400 mg/kg, 800 mg/kg); compound 3-6M group (400 mg/kg, 800 mg/kg).
Administration frequency: once a day, and administration for 3 days.

The test system of series [3] is MIA-paca-2 cells subcutaneous transplanted tumor. The series can be described thus: Pharmacodynamic test of CDX model in nude mice. It is filed as in vivo. Conditions: 10 mg/kg, QD×15 days. As to the method:
Animal species and number: Balb/c Nude.
Test groups: blank solvent control group; compound 3-2M (10 mg/kg, QD×15 days), and compound 3-6M (10 mg/kg, QD×15 days).
Animal model establishment: MIA-paca-2 cells were cultured in vitro and inoculated subcutaneously on the right side of the back of nude mice, and the tumor-bearing nude mice were randomly grouped. Subsequently, each group of animals was administered and the day of the first administration was defined as day 1 of the test.
(§1) Administration route and frequency: oral gavage; and once a day.
General state observation: observation time and frequency: once a day; observation index or content: including, but not limited to local administration, appearance and signs, general behavioral activities, mental status, death and other abnormal manifestations of the animals. The animals were euthanized at the end of the test.
Tumor volume calculation: V=½×long diameter×short diameter^2 (mm^3). Tumor growth inhibition ratio TGI (%) was used to evaluate the tumor suppressive efficacy of the compounds. TGI (%)=[1-(mean tumor volume at the end of administration of the treatment group−mean tumor volume at the beginning of administration of the treatment group)/(mean tumor volume at the end of administration of the control group−mean tumor volume at the beginning of administration of the control group)]×100%.

Series [4] deals with Langendorff isolated perfused heart. Kind of series: In vitro isolated heart perfusion test (Langendorff). Set-up: species or system Guinea pig. Conditions: 3.3 μM. The source says:
Test method: influences of Langendorff isolated perfused heart test compounds on electrocardiogram, wherein the test method used in this test was as follows: [table] Test compounds: compound 3-2M and the compound in Example 41 of patent WO2018217651A1 (i.e., AMG510).

Series [5] deals with NCI-H358 tumor cells xenograft. The series can be described thus: Pharmacodynamics test of xenograft tumor model of NCI-H358 in nude mice. It is filed as in vivo, Balb/c Nude mice. Conditions: 100 mg/kg. As to the method:
Animal species and number: Balb/c Nude; 6 animals per group.
Samples for testing: compound 3-2M, compound 3-16M, TM-1, TM-3, and AMG510 (obtained by purchasing).
Test groups: blank solvent control group; compound 3-2M (100 mg/kg, QD×15 days), compound 3-16M (100 mg/kg, QD×15 days), TM-1 (100 mg/kg, QD×15 days), TM-3 (100 mg/kg, QD×15 days); and AMG510 (100 mg/kg, QD×15 days).
Animal model establishment: NCI-H358 tumor cells at logarithmic phase were cultured and collected in vitro, and inoculated subcutaneously on the right side of the back of nude mice at a quantity of 5×10^6 cells/each, and the tumor-bearing nude mice were randomly grouped when the tumor volume grew to 150-300 mm^3. Subsequently, each group of animals was administered and the day of the first administration was defined as day 1 of the test.
as §1
General state observation: observation time and frequency: once a day; observation index or content: including, but is not limited to local administration, appearance and signs, general behavioral activities, mental status, death and other abnormal manifestations of the animals. The animals were euthanized at the end of the test.
Tumor volume calculation: V=½×long diameter× short diameter^2 (mm^3). Tumor growth inhibition ratio TGI (%) was used to evaluate the tumor suppressive efficacy of the compounds. TGI (%)=[1-(mean tumor volume at the end of administration of the treatment group−mean tumor volume at the beginning of administration of the treatment group)/(mean tumor volume at the end of administration of the control group−mean tumor volume at the beginning of administration of the control group)]×100%.

The subject of series [6] is NCI-H358. Kind of series: Cell proliferation inhibitory activity of NCI-H358, 3D model test (agarose colony formation). It is filed as cell-based. The procedure:
100 μl of high concentration agarose gel was spread in a 96-well plate as a bottom agarose gel layer; low concentration agarose and growth medium containing cells were mixed and spread on the bottom agarose gel layer, cooled and solidified and incubated overnight at 37° C.; a test compound was prepared into a mother liquor with DMSO, diluted with a RPMI 1640 growth medium in a concentration gradient, and the gradient diluted solution of the compound to be tested with different concentrations was added into 96 wells containing upper agarose gel cells, and solvent control wells were set and placed in a carbon dioxide incubator for culture. During the period, the drug-containing medium was changed to observe the cell growth. After the culture, the cells were stained with NBT, the number of colony formation was counted, and the IC50 value of the compound inhibiting cell proliferation was obtained.

Series [7] can be described thus: Analysis of therapeutic safety window. Conditions: in vivo, oral, 3 days.

On to `C=CC(=O)N1CCN(c2nc(=O)n(-c3c(C)ccnc3C(C)C)c3nc(-c4ccccc4C=O)c(Cl)cc23)[C@@H](C)C1` [Compound 3-2M], for which the “cell proliferation inhibitory activity against H358, R-configuration relative to S-configuration compound (fold)” value in series [1] (3-2M versus 3-2P) is “more than five times”. Further, in series [1] (H358), the “cell proliferation inhibitory activity, R-configuration compared with corresponding S-configuration compound (in words)” value is recorded as “significantly better than that of the corresponding compound 3-2P”. Further, the IC50 in series [1] (biological test 2, NCI-H358 cells, 72 hours, read-out: Cell proliferation inhibitory activity IC50 value of H358) was at most 50 nM. In series [2], the MTD at 3 days is above 800 mg/kg. In series [3], the “inhibition of subcutaneous transplanted tumor growth of pancreatic cancer MIA-paca-2 cells in nude mice (in words)” value is “significant inhibition of subcutaneous transplanted tumor growth”; the “toxicity during administration in CDX test (food and water intake, activities, weight)” value is given as “showed no toxicity”. Further, the “effect on the heart rate of the isolated heart (in words)” value in series [4] is recorded as “no obvious effect on the heart rate”. Also, the “HR (heart rate) change %” value in series [4] (Guinea pig isolated heart) is given as “A (“A” represents that the heart rate decreases by less than 5%)”. In addition, the “inhibition of subcutaneous transplanted tumor growth of lung cancer NCI-H358 cells in nude mice (in words)” value in series [5] was “significant inhibitory effects”. In addition, the “Tumor suppression ratio (%)” value in series [5] (NCI-H358 xenograft, QD×15 days, oral gavage) is recorded as “++++ (“++++” represents that the tumor suppression ratio is greater than 140%)”. In series [6], the “cell proliferation inhibitory activity against NCI-H358, 3D model (in words)” value is given as “significant cell proliferation inhibitory activities”. The compound further returned an IC50 in series [6] (Homo sapiens, NCI-H358, agarose gel, colony formation, NBT staining) of 1.8 nM. Besides, the “therapeutic safety window: ratio of toxic dose to onset dose” value in series [7] is “greater than 80 times”.
